Patent US20220003750A1, “FUNCTIONAL SCREEN FOR SMALL MOLECULE AND MONOCLONAL ANTIBODY DRUG SENSITIVITY IN MULTIPLE MYELOMA PATIENTS” (The Regents of the University of Colorado, a body corporate, priority 2018, published 2022)

Experiments:
[1] = system: primary MM cells in patient bone marrow aspirate MNC cultures; assay: Myeloma drug sensitivity testing (My-DST): ex vivo 48 h culture of patient bone marrow MNCs, flow cytometry of surviving MM cells
Text: Extra bone marrow aspirate was collected from patients at University of Colorado Blood Cancer and Bone Marrow Transplant Program after informed consent. Samples from patients with multiple myeloma or smoldering myeloma were obtained from the hematologic malignancies tissue bank with protocol approval from the Western Institutional Review Board. MNCs were isolated from the samples using SepMate Ficoll-Plaque tubes (StemCell Technologies). Normal donor samples were purchased from AllCells. Selection of CD138^+ cells was performed with magnetic bead columns (Miltenyi), only where specifically noted.
(§1) De-identified primary myeloma samples were thawed and incubated with 100 μg DNase I (Sigma-Aldrich). Samples were washed twice with 10 mL Dulbecco's Phosphate Buffered Saline (DPBS) without calcium and magnesium. Cells were resuspended in RPMI1640 medium containing L-glutamine with 10% FBS and 100 U/mL penicillin and 100 μg/mL streptomycin (Thermo Fisher Scientific) and 2 ng/mL IL-6 (PeproTech) at 37° C. for 2 hours. Cells were then transferred to 96-well plates at 4.5×10^5 cells/mL (90,000 MNCs per well) and drug treated for 48 hours. PIs, IMiDs and Dex were purchased from Thermo Fisher. […] Stock drug solutions were prepared at 10 mM in DMSO and stored at −20° C. until use. Dara was obtained from University of Colorado Health Pharmacy. Clodronate-liposomes were purchased from Encapsula Nanosciences to block macrophage activity.
(§2) After 48-hour treatment primary samples were washed in 1× cold DPBS and re-suspended in BD Brilliant Stain Buffer (BD Biosciences) in a 96-well v-bottom plate. Cells were treated with FcR Blocking Reagent (Miltenyi Biotec) for 5 minutes and then surface stained with the antibodies anti-CD19-BV786, anti-CD45-BV510, monoclonal anti-CD38-BV421 or multi-epitope anti-CD38-FITC (ALPCO), anti-CD138-BV421 and anti-CD319-APC or anti-CD46 conjugated to Alexa647 with the Antibody Labeling Kit (In Vitrogen). Intracellular staining with anti-kappa-BV605 and anti-lambda-PE light chains was performed after paraformaldehyde fixation and permeabilization. All antibodies were purchased from BD Biosciences, except as noted. After staining, samples were washed with 100 μl DPBS containing 2% FBS (FACS buffer) and re-suspended in 250 μL. Viability staining was done using the LIVE/DEAD Fixable Near-IR Kit (Invitrogen, Carlsbad Calif.). Flow cytometry data was collected using a FACSCelesta (BD) equipped with a high throughput sampler (FITS). For each well a fixed volume of 175 μL was collected by the HTS. Data analysis was completed using FlowJo software.
To profile response to the agents commonly used in clinic, patient samples were initially screened with a panel including bortezomib (Bor), carfilzomib (Car), lenalidomide (Len), pomalidomide (Pom), Dex and Cy (tested as its active metabolite “4-HC”). MNCs are cultured for 48 hours, followed by flow cytometry to measure the surviving MM cell population. To accurately measure the MM cells on a sample-by-sample basis, cells were labeled for surface expression of CD138, CD38, CD45, CD19, CD319 and CD46. […] In parallel, intracellular flow cytometry for kappa and lambda was used to verify the clonality and individualize the MM population gating (FIG. 1F).
For rapid screening, single concentrations of each drug were sought that produce an expected decrease in MM cell viability by which to judge sensitivity versus resistance. This was started by establishing the dose response to each drug under the above conditions. Each condition was performed in triplicate and normalized compared to untreated control.

[2] = system: non-plasma cells (NPCs) negative for CD138 and CD38; conditions: 48 h; for viability of nonplasma cells (NPCs) in the cultures: patient samples (FIG. 2A, 7E)
Procedure: as §1
as §2, with “software. […]” for “software.”

[3] = system: nonmalignant plasma cells from normal donor bone marrow; assay: My-DST quality control: normal donor bone marrow aspirates, nonmalignant plasma cells; type: cell-based, human; conditions: 48 h (FIG. 2B, 7F)
Text: Normal donor samples were purchased from AllCells.
PIs, IMiDs and Dex were purchased from Thermo Fisher. […] Dara was obtained from University of Colorado Health Pharmacy.
Data analysis was completed using FlowJo software.

[4] = patient 614, with progression of disease (FIG. 5D)

daratumumab
ex vivo response in samples from patients who had recently received Dara ([1]; 20 nM, Dara-exposed patients (FIG. 6C)): ex vivo resistance was evident
ex vivo activity, newly diagnosed versus relapsed samples ([1]; 20 nM, Dara-naïve patients (FIG. 6C)): very similar activity
ex vivo sensitivity in naïve patients compared to those with prior exposure ([1]; 20 nM, P=0.003 (FIG. 6D)): significantly lower
ex vivo activity after addition of clodronate-containing liposomes (macrophage deactivation) ([1]; 3/3 Dara-sensitive samples (FIG. 7D)): partially blocked
dose response of viable MM cells (FIG. 6A) ([1]; 48 hours ex vivo culture): dose dependent reduction in viable MM cells
viability of nonplasma cells (NPCs) in the cultures [2]: did not affect the viability
viability of plasma cells from BM aspirates from normal donors [3]: did not substantially reduce viability

Nc1cccc2c1CN(C1CCC(=O)NC1=O)C2=O (stereo not shown) [R, lenalidomide]
change of ex vivo drug sensitivity between biopsies at multiple time points [1, 4]: significantly increased drug resistance
change of ex vivo drug sensitivity between biopsies at multiple time points ([1]; patient 700 (FIG. 5C)): significantly increased drug resistance

O=P1(N(CCCl)CCCl)NCCCO1 (stereo not shown) [C, cyclophosphamide]
viability of MM cells compared to untreated controls (FIG. 1G) ([1]; 48 h, representative patient sample): reduced viable MM cells
EV sensitivity in samples from patients with prior clinical exposure versus naïve ([1]; FIGS. 8C-8F): unchanged
change of ex vivo drug sensitivity between biopsies at multiple time points ([1]; patient 634, multiple relapse time points (FIG. 5E)): remained IMiD and cyclophosphamide resistant
change of ex vivo drug sensitivity between biopsies at multiple time points ([1]; patient 646 (FIG. 5F)): surprising re-sensitization
change of ex vivo drug sensitivity between biopsies at multiple time points ([1]; patient 700 (FIG. 5C)): increased sensitivity
nonspecific cytotoxicity on the bulk MNC population (FIG. 1G) [2]: sometimes showed nonspecific cytotoxicity
viability of nonplasma cells (NPCs) in the cultures [2]: occasional exception

IL-6: interleukin-6, cytokine added to the culture, 2 ng/mL
MM cell viability loss in culture on IL-6 addition (FIG. 1B) ([1]; ex vivo supplementation of culture): attenuated MM cell viability loss in culture for some patient samples

CC(C)C[C@H](NC(=O)[C@H](CCc1ccccc1)NC(=O)CN1CCOCC1)C(=O)N[C@@H](Cc1ccccc1)C(=O)N[C@@H](CC(C)C)C(=O)[C@@]1(C)CO1 [Car, carfilzomib]
change of ex vivo drug sensitivity between biopsies at multiple time points [1, 4]: significantly increased drug resistance

CC(C)C[C@H](NC(=O)[C@H](Cc1ccccc1)NC(=O)c1cnccn1)B(O)O [V, bortezomib]
change of ex vivo drug sensitivity between biopsies at multiple time points ([1]; patient 646 (FIG. 5F)): lost isolated bortezomib sensitivity
